Laboratory results published in patent publication US20070231373A1, “Transdermal Steriod for Formulation” (HUNTER-FLEMING LIMITED, priority 2004, published 2007).

Assay: Permeation behaviour through excised rat skin in Franz type cell
Assay type: in vitro ADME, Wistar rats
Details: conclusion from comparison with estradiol
Experimental: The materials used were as follows:
The excised abdominal rat skin was mounted on a Franz type cell (receiver volume: 3ml) with a water jacket connected to a water bath at 37° C. The patch was adhered to the stratum comeum side of the skin. The receiver compartment was filled with a mixture of PEG400 and water (1:3 by volume) and stirred with a star head magnetic bead driven by a constant speed motor. At predetermined times, 100 μl of sample was withdrawn from the receiver compartment, and the same volume of receptor solution was added to keep the volume constant. The drug concentration was analysed by HPLC.
For all adhesives, the amount of the drug which had permeated increased steadily with time.

SMILES	skin permeability (in words)
CC12CCC3C(C1CCC2=O)[C@@H](O)C[C@H]1C[C@@H](O)CCC31C (stereo partly drawn) [7β-OH EPIA, 7β-hydroxy-epiandrosterone]	potential skin permeability
C[C@]12CCC(=O)C=C1CC[C@@H]1[C@@H]2[C@@H](O)C[C@]2(C)C(=O)CC[C@@H]12 [HAD, 11β-hydroxy-4-androstene-3,17-dione]	potential skin permeability
